Measurements: patent US7713937B2, “Synthetic peptide amides and dimeric forms thereof” (Cara Therapeutics, Inc., priority 2006, dated 2010)
Square brackets hold non-standard residues; d marks the D form. Peptide text beside a SMILES is read from it. * marks the point of attachment. Piperidinyl(4-(1-Pro-OH)) = O=C(O)[C@@H]1CCCN1C1CCN(*)CC1; Piperidin1yl(4-NH2,4-COOH) = NC1(C(=O)O)CCN(*)CC1; Homopiperazine(4-amidino) = N=C(N)N1CCCN(*)CC1; d(hArg) = N=C(N)NCCCC[C@@H](N)C(=O)O; dAgb = N=C(N)NCC[C@@H](N)C(=O)O; dAgp = N=C(N)NC[C@@H](N)C(=O)O; dOrn = NCCC[C@@H](N)C(=O)O; dDab = NCC[C@@H](N)C(=O)O; Inp = O=C(O)C1CCNCC1

Experiments:
[1] = molecular target: T1, mouse kappa opioid receptor (mKOR) (Mus musculus, UniProt P33534); test: cell-based; settings: for Emax: read-out: mKOR Efficacy(%)
T1 construct: Stimulation of Endogenous Mouse Kappa-Opioid Receptor in R1.G1 Cells; host or cells: R1.G1 mouse thymoma cells
T1 sequence (P33534 whole entry): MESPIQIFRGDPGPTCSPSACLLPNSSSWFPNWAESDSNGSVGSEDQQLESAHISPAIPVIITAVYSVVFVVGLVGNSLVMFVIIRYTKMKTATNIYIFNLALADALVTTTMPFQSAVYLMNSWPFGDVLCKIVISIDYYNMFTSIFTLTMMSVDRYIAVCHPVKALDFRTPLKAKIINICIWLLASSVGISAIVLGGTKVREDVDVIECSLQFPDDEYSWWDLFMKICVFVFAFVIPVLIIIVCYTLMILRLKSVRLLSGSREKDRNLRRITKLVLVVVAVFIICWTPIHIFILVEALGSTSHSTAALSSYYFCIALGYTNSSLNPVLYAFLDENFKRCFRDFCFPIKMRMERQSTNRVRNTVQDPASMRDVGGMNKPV

[2] = molecular target: T2, human kappa opioid receptor (hKOR) (Homo sapiens, UniProt P41145); test: cell-based; settings: for Emax: HEK293, read-out: hKOR Efficacy(%)
T2 construct: expressed in transfected cells; host or cells: HEK-293 cells, transient transfection with Fugene6
T2 sequence (P41145 whole entry): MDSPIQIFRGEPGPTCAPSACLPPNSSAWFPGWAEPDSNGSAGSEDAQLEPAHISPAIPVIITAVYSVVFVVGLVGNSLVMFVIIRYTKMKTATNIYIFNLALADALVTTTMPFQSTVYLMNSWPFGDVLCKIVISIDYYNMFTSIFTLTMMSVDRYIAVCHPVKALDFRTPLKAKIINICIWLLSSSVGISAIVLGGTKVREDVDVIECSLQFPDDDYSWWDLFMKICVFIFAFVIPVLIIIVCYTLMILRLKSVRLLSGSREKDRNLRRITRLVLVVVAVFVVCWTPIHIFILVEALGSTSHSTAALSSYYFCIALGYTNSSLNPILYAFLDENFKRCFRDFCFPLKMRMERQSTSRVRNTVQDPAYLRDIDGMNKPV

SMILES: CC(C)C[C@@H](NC(=O)[C@@H](Cc1ccccc1)NC(=O)[C@H](N)Cc1ccccc1)C(=O)N[C@H](CCCN)C(=O)NCCCC[C@H](NC(=O)[C@H](N)CCCN)C(=O)N1CCNCC1 [Compound (81)]
- EC50 [1]: 0.05 nM
- Emax [1]: 96%
- EC50 [2]: 0.28 nM
- Emax [2]: 96%

SMILES: CC(C)C[C@@H](NC(=O)[C@@H](Cc1ccccc1)NC(=O)[C@H](N)Cc1ccccc1)C(=O)N[C@H](CCCCN)C(=O)N1CCN(S(=O)(=O)c2ccccc2)CC1 [Compound (69), D-Phe-D-Phe-D-Leu-D-Lys-[1-(phenylsulfonyl)piperazine amide]]
- EC50 [1]: 0.53 nM
- Emax [1]: 87%
- EC50 [2]: 0.011 nM
- Emax [2]: 101%

SMILES: CC(C)C[C@@H](NC(=O)[C@@H](Cc1ccccc1)NC(=O)[C@H](N)Cc1ccccc1)C(=O)N[C@H](CCCN)C(=O)N1CCC(N2CCC[C@H]2C(N)=O)CC1 [Compound (50), D-Phe-D-Phe-D-Leu-D-Orn-[N-(4-piperidinyl)-L-proline]-NH2]
- EC50 [1]: 0.022 nM
- Emax [1]: 96%
- EC50 [2]: 0.19 nM

SMILES: CC(C)C[C@@H](NC(=O)[C@@H](Cc1ccccc1)NC(=O)[C@H](N)Cc1ccccc1)C(=O)N[C@H](CCNC(=N)N)C(=O)N1CCCN(C(=N)N)CC1 [Compound (23), D-Phe-D-Phe-D-Leu-D-Nar-[4-amidinohomopiperazine amide]] (H-[dF][dF][dL][dAgb]-{Homopiperazine(4-amidino)})
- EC50 [1]: 0.091 nM
- Emax [1]: 104%
- EC50 [2]: 0.17 nM
- Emax [2]: 84%

SMILES: CC(C)C[C@@H](NC(=O)[C@@H](Cc1ccccc1)NC(=O)[C@H](N)Cc1ccccc1)C(=O)N[C@H](CCN)C(=O)N1CCCN(C(=N)N)CC1 [Compound (22), D-Phe-D-Phe-D-Leu-D-Dbu-[4-amidinohomopiperazine amide]] (H-[dF][dF][dL][dDab]-{Homopiperazine(4-amidino)})
- EC50 [1]: 0.095 nM
- Emax [1]: 103%
- EC50 [2]: 0.18 nM
- Emax [2]: 86%

SMILES: CC(C)C[C@@H](NC(=O)[C@@H](Cc1ccccc1)NC(=O)[C@H](N)Cc1ccccc1)C(=O)N[C@H](CCCCN)C(=O)NCC1OCCO1 [Compound (62)]
- EC50 [1]: 0.147 nM
- Emax [1]: 85%
- EC50 [2]: 0.021 nM
- Emax [2]: 98%

SMILES: CC(C)C[C@@H](NC(=O)[C@@H](Cc1ccccc1)NC(=O)[C@H](N)Cc1ccccc1)C(=O)N[C@H](CCNC(=N)N)C(=O)N1CCC(N2CCC[C@H]2C(=O)O)CC1 [Compound (13), D-Phe-D-Phe-D-Leu-D-Nar-[N-(4-piperidinyl)-L-proline]-OH] (H-[dF][dF][dL][dAgb]-{Piperidinyl(4-(1-Pro-OH))})
- EC50 [1]: 0.032 nM
- Emax [1]: 88%
- EC50 [2]: 0.13 nM
- Emax [2]: 90%

SMILES: CC(C)C[C@@H](NC(=O)[C@@H](Cc1ccccc1)NC(=O)[C@H](N)Cc1ccccc1)C(=O)N[C@H](CCCN)C(=O)NCCN1CCN(CC(N)=O)CC1 [Compound (49), D-Phe-D-Phe-D-Leu-D-Orn-[4-(2-aminoethyl)-1-carboxymethyl-piperazine]-NH2]
- EC50 [1]: 0.115 nM
- Emax [1]: 96%
- EC50 [2]: 0.22 nM
- Emax [2]: 96%

SMILES: Cc1nnc(C)n1C1CCN(C(=O)[C@@H](CCCCN)NC(=O)[C@@H](CC(C)C)NC(=O)[C@@H](Cc2ccccc2)NC(=O)[C@H](N)Cc2ccccc2)CC1 [Compound (31), D-Phe-D-Phe-D-Leu-D-Lys-[4-(3,5-dimethyl-4H-1,2,4-triazol-4-yl)piperidine amide]]
- EC50 [1]: 0.0216 nM
- Emax [1]: 86%
- EC50 [2]: 0.0042 nM
- Emax [2]: 95%

SMILES: CC(C)C[C@@H](NC(=O)[C@@H](Cc1ccccc1)NC(=O)[C@H](N)Cc1ccccc1)C(=O)N[C@H](CCCCN)C(=O)N1CCCN(C(=N)N)CC1 [Compound (15), D-Phe-D-Phe-D-Leu-D-Lys-[4-amidinohomopiperazine amide]]
- EC50 [1]: 0.028 nM
- Emax [1]: 92%
- EC50 [2]: 0.11 nM
- Emax [2]: 92%

SMILES: CC(C)C[C@@H](NC(=O)[C@@H](Cc1ccccc1)NC(=O)[C@H](N)Cc1ccccc1)C(=O)N[C@H](CCCN)C(=O)N1CCC(N2CCC[C@H]2C(=O)O)CC1 [Compound (47), D-Phe-D-Phe-D-Leu-D-Orn-[N-(4-piperidinyl)-L-proline]-OH]
- EC50 [1]: 0.085 nM
- Emax [1]: 99%
- EC50 [2]: 0.17 nM
- Emax [2]: 92%

SMILES: CNCCCC[C@@H](NC(=O)[C@@H](CC(C)C)NC(=O)[C@@H](Cc1ccccc1)NC(=O)[C@H](N)Cc1ccccc1)C(=O)N1CCCN(C(=N)N)CC1 [Compound (1), D-Phe-D-Phe-D-Leu-(ε-Me)D-Lys-[4-amidinohomopiperazine amide]]
- EC50 [1]: 0.043 nM
- Emax [1]: 103%
- EC50 [2]: 0.15 nM
- Emax [2]: 97%

SMILES: CC(C)C[C@@H](NC(=O)[C@@H](Cc1ccccc1)NC(=O)[C@H](N)Cc1ccccc1)C(=O)N[C@H](CCCN)C(=O)N1CCC(C(=O)O)CC1 [Compound (46), D-Phe-D-Phe-D-Leu-D-Orn-[Isonipecotic acid]-OH] (H-[dF][dF][dL][dOrn][Inp]-OH)
- EC50 [1]: 0.088 nM
- Emax [1]: 92%
- EC50 [2]: 0.28 nM
- Emax [2]: 128%

SMILES: CC(C)C[C@@H](NC(=O)[C@@H](Cc1ccccc1)NC(=O)[C@H](N)Cc1ccccc1)C(=O)N[C@H](CCCCNC(C)C)C(=O)N1CCC(N)(C(=O)O)CC1 [Compound (9), D-Phe-D-Phe-D-Leu-(ε-iPr)D-Lys-[ω(4-aminopiperidine-4-carboxylic acid)]-OH]
- EC50 [1]: 0.078 nM
- Emax [1]: 96%
- EC50 [2]: 0.17 nM
- Emax [2]: 90%

SMILES: CC(C)C[C@@H](NC(=O)[C@@H](Cc1ccccc1)NC(=O)[C@H](N)Cc1ccccc1)C(=O)N[C@H](CCCCNC(=N)N)C(=O)N1CCC(N)(C(=O)O)CC1 [Compound (8), D-Phe-D-Phe-D-Leu-D-Har-[ω(4-aminopiperidine-4-carboxylic acid)]-OH] (H-[dF][dF][dL][d(hArg)]-{Piperidin1yl(4-NH2,4-COOH)})
- EC50 [1]: 0.043 nM
- Emax [1]: 90%
- EC50 [2]: 0.12 nM
- Emax [2]: 96%

SMILES: CC(C)C[C@@H](NC(=O)[C@@H](Cc1ccccc1)NC(=O)[C@H](N)Cc1ccccc1)C(=O)N[C@H](CCCCN)C(=O)N1CCC2(CC1)NC(=O)NC2=O [Compound (27), D-Phe-D-Phe-D-Leu-D-Lys-[1,3,8-triazaspiro[4,5]decane-2,4-dione amide]]
- EC50 [1]: 0.0056 nM
- Emax [1]: 87%
- EC50 [2]: < 0.001 nM
- Emax [2]: 88%

SMILES: Cc1cnc(CNC(=O)[C@@H](CCCCN)NC(=O)[C@@H](CC(C)C)NC(=O)[C@@H](Cc2ccccc2)NC(=O)[C@H](N)Cc2ccccc2)cn1 [Compound (35), D-Phe-D-Phe-D-Leu-D-Lys-[(5-methylpyrazin-2-yl)methyl amide]]
- EC50 [1]: 0.0359 nM
- EC50 [2]: 0.0064 nM

SMILES: CC(C)C[C@@H](NC(=O)[C@@H](Cc1ccccc1)NC(=O)[C@H](N)Cc1ccccc1)C(=O)N[C@H](CCCCN)C(=O)N1CCN(c2nccs2)CC1 [Compound (66), D-Phe-D-Phe-D-Leu-D-Lys-[2-(piperazin-1-yl)thiazole amide]]
- EC50 [1]: 0.084 nM
- Emax [1]: 85%
- EC50 [2]: 0.031 nM
- Emax [2]: 92%

SMILES: CC(C)C[C@@H](NC(=O)[C@@H](Cc1ccccc1)NC(=O)[C@H](N)Cc1ccccc1)C(=O)N[C@H](CNC(=N)N)C(=O)N1CCCN(C(=N)N)CC1 [Compound (18), D-Phe-D-Phe-D-Leu-(β-amidino)D-Dap-[4-amidinohomopiperazine amide]] (H-[dF][dF][dL][dAgp]-{Homopiperazine(4-amidino)})
- EC50 [1]: 1.02 nM
- Emax [1]: 103%
- EC50 [2]: 1.15 nM
- Emax [2]: 93%
